Test results taken from US9718762B2, “Insecticidal compounds” (Syngenta Participations AG, priority 2013, dated 2017).

Experiments:
Assay type in all cases: in vivo
[1] = system: Thrips tabaci; assay: Thrips tabaci (onion thrips) sunflower leaf disc spray test; conditions: foliar, 168 h, 200 ppm spray on sunflower leaf discs, population of mixed ages, 7 days, mortality
Experimental: (§1) Thrips tabaci (Onion Thrips): Sunflower leaf discs were placed on agar in a 24-well microtiter plate and sprayed with test solutions at an application rate of 200 ppm. After drying, the leaf discs were infested with an […] population of mixed ages. After an incubation period of 7 days, samples were checked for mortality.

[2] = system: Myzus persicae; assay: Myzus persicae (green peach aphid) sunflower leaf disc spray test; conditions: foliar, 144 h, 200 ppm spray on sunflower leaf discs, aphid population of mixed ages, 6 DAT, mortality
Experimental: as §1, with “Myzus persicae (Green Peach Aphid):” for “Thrips tabaci (Onion Thrips):”, “6 DAT,” for “7 days,”

[3] = system: Tetranychus urticae; assay: Tetranychus urticae (two-spotted spider mite) bean leaf disc spray test; conditions: foliar, 192 h, 200 ppm spray on bean leaf discs, mite populations of mixed ages, 8 days, egg, larval and adult mortality
From the text: Tetranychus urticae (Two-Spotted Spider Mite): Bean leaf discs on agar in 24-well microtiter plates were sprayed with test solutions at an application rate of 200 ppm. After drying, the leaf discs are infested with mite populations of mixed ages. 8 days later, discs are checked for egg mortality, larval mortality, and adult mortality.

[4] = system: Spodoptera littoralis; assay: Spodoptera littoralis (Egyptian cotton leafworm) cotton leaf disc spray test; conditions: foliar, 72 h, 200 ppm spray on cotton leaf discs, L1 larvae, 3 days after treatment, mortality, feeding behavior, growth regulation
From the text: Spodoptera littoralis (Egyptian Cotton Leafworm): Cotton leaf discs were placed on agar in a 24-well microtiter plate and sprayed with test solutions at an application rate of 200 ppm. After drying, the leaf discs were infested with 5 L1 larvae. The samples were checked for mortality, feeding behavior, and growth regulation 3 days after treatment (DAT).

[5] = system: Heliothis virescens; assay: Heliothis virescens (tobacco budworm) egg test on artificial diet; conditions: 96 h, 200 ppm (concentration in well 18 ppm), eggs on artificial diet, 4 days, egg mortality, larval mortality, growth regulation
Experimental: Heliothis virescens (Tobacco Budworm): Eggs (0-24 h old) were placed in 24-well microtiter plate on artificial diet and treated with test solutions at an application rate of 200 ppm (concentration in well 18 ppm) by pipetting. After an incubation period of 4 days, samples were checked for egg mortality, larval mortality, and growth regulation.

[6] = system: Diabrotica balteata; assay: Diabrotica balteata (corn root worm) artificial diet test; conditions: 120 h, 200 ppm (concentration in well 18 ppm), L2 larvae, 5 days, larval mortality, growth regulation
Experimental: (§2) Diabrotica balteata (Corn Root Worm): A 24-well microtiter plate (MTP) with artificial diet was treated with test solutions at an application rate of 200 ppm (concentration in well 18 ppm) by pipetting. After drying, the MTP's were infested with L2 larvae (6-10 per well). After an incubation period of 5 days, samples were checked for larval mortality and growth regulation.

[7] = system: Plutella xylostella; assay: Plutella xylostella (diamond back moth) artificial diet test; conditions: 144 h, 200 ppm (concentration in well 18 ppm), L2 larvae, 6 days, larval mortality, growth regulation
Experimental: as §2, with “Plutella xylostella (Diamond Back Moth):” for “Diabrotica balteata (Corn Root Worm): A”, “(7-12” for “(6-10”, “6” for “5”

Measured: pest or weed control at 200 ppm

CCc1cc(C(F)(C(F)(F)F)C(F)(F)F)cc(Cl)c1NC(=O)c1cccc(N(CC)C(=O)c2ccc(C#N)cc2)c1OC [Compound 12]
≥ 80%: all assays above

COc1c(C(=O)Nc2c(Cl)cc(C(F)(C(F)(F)F)C(F)(F)F)cc2Cl)cccc1N(C)C(=O)c1ccc(C#N)cc1 [Compound 7]
≥ 80%: all assays above

CCc1cc(C(F)(C(F)(F)F)C(F)(F)F)cc(CC)c1NC(=O)c1cccc(N(CC)C(=O)c2ccc(C#N)cc2)c1OC [Compound 9]
≥ 80%: all assays above

CCc1cc(C(F)(C(F)(F)F)C(F)(F)F)cc(Br)c1NC(=O)c1cccc(N(CC)C(=O)c2ccc(C#N)cc2)c1 [Compound 8]
not listed: [4]
≥ 80%: all other assays above

CCc1cc(C(F)(C(F)(F)F)C(F)(F)F)cc(C)c1NC(=O)c1cccc(N(CC)C(=O)c2ccc(C#N)cc2)c1OC [Compound 3]
≥ 80%: all assays above

CCc1cc(C(F)(C(F)(F)F)C(F)(F)F)cc(Cl)c1NC(=O)c1cccc(N(C)C(=O)c2ccc(C#N)cc2)c1OC [Compound 11]
≥ 80%: all assays above

CCN(C(=O)c1ccc(C#N)cc1)c1cccc(C(=O)Nc2c(Cl)cc(C(F)(C(F)(F)F)C(F)(F)F)cc2Br)c1OC [Compound 1, N-[2-bromo-6-chloro-4-[1,1,1,2,3,3,3-heptafluoro-prop-2-yl]phenyl]-3-[(4-cyanobenzoyl)-ethyl-amino]-2-methoxy-benzamide]
≥ 80%: all assays above

CCN(C(=O)c1ccc(C#N)cc1)c1cccc(C(=O)Nc2c(Br)cc(C(F)(C(F)(F)F)C(F)(F)F)cc2Br)c1OC [Compound 5]
≥ 80%: all assays above

COc1c(C(=O)Nc2c(Cl)cc(C(F)(C(F)(F)F)C(F)(F)F)cc2Br)cccc1N(C)C(=O)c1ccc(C#N)cc1 [Compound 4]
≥ 80%: all assays above

COc1c(C(=O)Nc2c(Br)cc(C(F)(C(F)(F)F)C(F)(F)F)cc2Br)cccc1N(C)C(=O)c1ccc(C#N)cc1 [Compound 6]
≥ 80%: all assays above

CCc1cc(C(F)(C(F)(F)F)C(F)(F)F)cc(Br)c1NC(=O)c1cccc(N(C)C(=O)c2ccc(C#N)cc2)c1OC [Compound 10]
≥ 80%: all assays above

CCN(C(=O)c1ccc(C#N)cc1)c1cccc(C(=O)Nc2c(Cl)cc(C(F)(C(F)(F)F)C(F)(F)F)cc2Cl)c1OC [Compound 2]
≥ 80%: all assays above
